A word on the solubility: it is the dissolved amount per volume that the medium holds. Read a high solubility as a readily soluble substance. Usually EC50 stands for the concentration at which the effect is half-maximal. A low value points to a more potent agent. As usually defined, the Solubility is the concentration that dissolves in the medium under given conditions. Read a high Solubility as much dissolved substance.

Consider 28 compounds from patent US8633232B2, “Compounds, compositions and methods of using same for modulating uric acid levels” (Ardea Biosciences, Inc., priority 2008, dated 2014).

Structures are written as SMILES. Structures can show the parent of a compound that is named as a salt. Bounds are passed on as bounds.

For data set [1], the system named is healthy adult male human volunteers. The experiment in a line: In vivo uric acid lowering activity, multiple ascending dose placebo-controlled study. The procedure:
16 healthy male individuals, aged 18-45 years inclusive, with a body mass index (BMI) within 18-30 kg/m^2 inclusive, having provided a written informed consent, non smokers for at least 6 months, not using any drug treatment for 2 weeks before screening (2 months for enzyme-inducing drugs) except occasional Acetaminophen. The individuals were confined at the clinical site beginning the day before dose administration until 72 hours after the final dose administration on Day 17 and returned for a follow-up visit on Day 21±1.
Matching placebo capsules were supplied as size 2 gelatin capsules. Individuals were randomized to receive the same number of placebo capsules as administered to the active individuals.
Capsules (active or placebo) were administered orally with 240 mL water 30 min after a standard breakfast (morning dose) and dinner (evening dose) for 14 days.
16 individuals (8 individuals [6 active and 2 placebo] per dose group). • a. Group 1: Placebo • b. Group 2: 300 mg (3×100-mg capsules) example 1 b.i.d. • c. Group 3: 500 mg (5×100-mg capsules) example 1 b.i.d.
Blood was collected from the individuals on days 0, 3, 7, 14 and at follow-up. Serum uric levels were measured using standard automated procedures. The results are shown in the table below (uric acid levels in μmol/L).

The next data set in a line: physchem. Conditions: for Solubility: 22° C., 24 hours. The method, then: When it appeared the saturation point was being reached, addition was stopped, and the eppendorf vial was shaken at a constant speed of 1000 rpm at 22° C. for 24 hours. The tubes were then centrifuged for 5 minutes at 10-15,000 rpm, and checked for precipitation. Samples were diluted with acetonitrile/water, (1/1) (or iso-propyl alcohol for hexane) and analyzed by HPLC against known standards.

Another data set deals with T1, hURAT1 Transporter (Homo sapiens, UniProt Q96S37).
T1 construct: Full-length human URAT1 gene (SLC22A12) was subcloned from plasmid pCMV6-XL5
T1 sequence (Q96S37 1-553): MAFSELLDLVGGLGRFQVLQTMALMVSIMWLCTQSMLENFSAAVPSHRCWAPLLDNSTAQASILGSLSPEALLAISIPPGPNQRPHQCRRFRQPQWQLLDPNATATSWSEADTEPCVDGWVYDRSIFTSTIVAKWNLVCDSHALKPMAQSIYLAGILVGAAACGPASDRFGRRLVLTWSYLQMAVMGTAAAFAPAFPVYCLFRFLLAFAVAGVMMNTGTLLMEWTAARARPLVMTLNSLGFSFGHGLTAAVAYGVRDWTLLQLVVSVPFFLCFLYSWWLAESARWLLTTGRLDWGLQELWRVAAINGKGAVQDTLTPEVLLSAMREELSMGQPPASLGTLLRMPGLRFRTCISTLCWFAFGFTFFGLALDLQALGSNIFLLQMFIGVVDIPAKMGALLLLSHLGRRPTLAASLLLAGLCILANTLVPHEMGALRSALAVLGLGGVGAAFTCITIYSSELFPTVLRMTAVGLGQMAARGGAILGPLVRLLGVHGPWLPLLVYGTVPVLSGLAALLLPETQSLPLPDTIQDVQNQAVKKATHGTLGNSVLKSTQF
The experiment in a line: Uric Acid Uptake Assay. Type of data set: cell-based. As to conditions: HEK293/urat1 cells; C14 Uric Acid 40 μM; 10 minutes at room temperature. The text has this: Creation of Stable Cell Lines Expressing hURAT1 Transporter: Full-length human URAT1 gene (SLC22A12) was subcloned from plasmid pCMV6-XL5 (Origene) into eukaryotic expression plasmid pCMV6/Neo (Origene) using Not I restriction sites. Gene sequencing confirmed the sequence of hURAT1 as outlined in Genbank (Accession #NM_144585.2). HEK293 human embryonic kidney cells (ATCC#CRL-1573) were propagated in EMEM tissue culture medium as described by ATCC in an atmosphere of 5% CO2 and 95% air. Transfections of HEK293 cells with the pCMV6/Neo/URAT1 construct were performed using L2000 transfection reagent (Invitrogen) as described by the manufacturer. After 24 h the transfected cells were split into 10 cm tissue culture plates and grown for 1 day after which the medium was replaced with fresh growth medium containing G418 (Gibco) at 0.5 mg/ml final concentration. Drug-resistant colonies were selected after approximately 8 days and then tested for ^14C-uric acid transport activity. The HEK293/urat1 cells are plated on Poly-D-Lysine Coated 96-well Plates at a density of 75,000 cells per well.
Cells were grown overnight (20-26 hours) at 37° C. in an incubator. Plates were allowed to come to room temperature and media was washed out with one wash of […] of Wash Buffer (125 mM Na Gluconate, 10 mM Hepes ph 7.3). Compound or vehicle is added in assay buffer with C14 Uric Acid for a final concentration of 40 μM Uric Acid with a specific activity of 54 mCi/mmol. Assay Buffer is 125 mM Sodium Gluconate, 4.8 mM Potassium Gluconate, 1.2 mM Potassium phosphate, monobasic, 1.2 mM magnesium sulfate, 1.3 mM Ca Gluconate, 5.6 mM Glucose, 25 mM HEPES, pH 7.3. Plates were incubated at room temperature for 10 minutes then washed 3 times with 50 μl Wash Buffer and 3 times with 250 μl Wash Buffer. Microscint 20 Scintillation Fluid was added and plates were incubated overnight at 45° C. to equilibrate. Plates are then read on the TopCount Plate Reader and an EC50 value generated. (See Enomoto et al, Nature, 2002, 417, 447-451 and Anzai et al, J. Biol. Chem., 2004, 279, 45942-45950.).
Compounds prepared as described herein, were examined according to the procedure described above and EC50 values generated. […] (N/A means data not available).

Data set [2] is described as follows: In vitro metabolic stability in human liver microsomes. In kind it is in vitro ADME. As to conditions: 1 uM test compound, 1 mg/mL HLM, 1 mM NADPH, 30 minute incubation at 37° C. The method, then: (§1) In vitro metabolic stability was assessed in rat and human liver microsomes (RLM/HLM). The incubation mixer contained the following: 1 uM test compound, 1 mg/mL HLM/RLM, 100 mM potassium phosphate buffer at pH 7.4, 1 mM NADPH and 5 mM MgCl2. This mixture was preincubated for 3 min before the 30 minute incubation at 37° C. The reaction was initiated with the addition of NADPH and terminated by the addition of equal volume of acetonitrile with internal standard. Incubation samples without NADPH were used as control samples. After vortexing and centrifugation, the supernatant was injected onto LC-MS/MS for quantitation.

A short description of data set [3]: In vitro metabolic stability in rat liver microsomes. In kind it is in vitro ADME. Conditions: 1 uM test compound, 1 mg/mL RLM, 1 mM NADPH, 30 minute incubation at 37° C. The procedure: as §1
Background: Liver microsomes are vesicles of endoplasmic reticulum, rich in cytochrome P450 enzymes.

[4] abbreviates: 300 mg b.i.d. oral, Day 3, n = 6, serum.
Setting [5] is: 300 mg b.i.d. oral, Day 7, n = 6, serum.
Where [6] appears, read: 300 mg b.i.d. oral, Day 14, n = 6, serum.
The mark [7] stands for this setting: 300 mg b.i.d. oral, Follow up, n = 6, serum.
Setting [8] is: 500 mg b.i.d. oral, Day 7, n = 6, serum.
Setting [9] is: 500 mg b.i.d. oral, Day 14, n = 6, serum.
Where [10] appears, read: 500 mg b.i.d. oral, Follow up, n = 6, serum.

As for `O=C(CSc1nnc(Br)n1-c1ccc(C2CC2)c2ccccc12)Nc1ccc(C(=O)[O-])cc1Cl.[K+]` [4-(2-(5-bromo-4-(4-cyclopropylnaphthalen-1-yl)-4H-1,2,4-triazol-3-ylthio)acetamido)-3-chlorobenzoic acid, potassium salt], the “Uric acid (μmol/L) MEAN” value in data set [1] (setting [4]) was -100.3229 µmol/L; in data set [1] (setting [5]), -126.2959 µmol/L; in data set [1] (setting [6]), -121.2401 µmol/L; in data set [1] (setting [7]) it was -2.2801 µmol/L; in data set [1] (setting [8]), -127.6837 µmol/L; in data set [1] (setting [9]), -111.8224 µmol/L. The “Uric acid (μmol/L) MEAN” value in data set [1] (setting [10]) is 27.2617 µmol/L. Moreover, the “Uric acid (μmol/L) MEDIAN” value in data set [1] (setting [4]) was -101.4134 µmol/L; in data set [1] (setting [5]), -119.8522 µmol/L; in data set [1] (setting [6]), -104.9822 µmol/L; in data set [1] (setting [7]), 0.8922 µmol/L; in data set [1] (500 mg b.i.d. oral, Day 3, n = 6, serum), -112.1198 µmol/L; in data set [1] (setting [8]), -144.2390 µmol/L. Also, the results for the “Uric acid (μmol/L) MEDIAN” value in data set [1] (setting [9]) and in data set [1] (setting [10]) were -124.9080 µmol/L and 27.3608 µmol/L, respectively. On to `O=C(O)CSc1nnc(Br)n1-c1ccc(C2CC2)c2ccccc12` [Example 104, Sodium 2-(5-bromo-4-(4-cyclopropylnaphthalen-1-yl)-4H-1,2,4-triazol-3-ylthio)acetate], for which the solubility at 24 h in the data set “physchem” (22 °C, pH 4.85, water, thermodynamic from solid, Solubility (mg/mL)) was 49200 µg/mL. The compound `CCOC(=O)CSc1nnc(C(F)F)n1-c1ccc(OC)c2c1CCCC2` came in with an EC50 on hURAT1 Transporter greater than 30 µM.

At hURAT1 Transporter, `CCOC(=O)C(C)Sc1nnc(N)n1-c1ccc(C2CC2)c2ccccc12` (stereo not shown) displayed an EC50 of 1 to 30 µM. Still for that read-out and setting: in the case of `Cc1nnc(SCC(=O)O)n1Cc1ccccc1` it was greater than 30 µM; in that of `O=C(O)CSc1nnc(C(F)(F)F)n1-c1cccc2ccccc12`, 1 to 30 µM. On the same count and under the same terms, then `CCc1ccc(-n2c(Br)nnc2SC(C)(C)C(=O)O)c2ccccc12` [2-(5-bromo-4-(4-ethylnaphthalen-1-yl)-4H-1,2,4-triazol-3-ylthio)-2-methylpropanoic acid], with 0.001 to 1 µM; and `CCOC(=O)CCCSc1nnc(N)n1-c1ccc(C2CC2)c2ccccc12`, with 1 to 30 µM; and `Cc1ccc2c(C)ccc(-n3cnnc3SCC(=O)O)c2c1` [Example 2, 2-(4-(4,7-Dimethylnaphthalen-1-yl)-4H-1,2,4-triazol-3-ylthio)acetic acid], with greater than 30 µM. Same read-out and setting: in the case of `COc1ccc(-n2c(SCC(=O)O)nnc2C(F)F)c2c1CCCC2` it was 1 to 30 µM; in that of `Cc1nnc(SCC(=O)O)n1-c1ccccc1F`, greater than 30 µM.

In the case of `Cc1ccc(-n2cnnc2SCC(=O)O)c2c1CCCC2`, on hURAT1 Transporter, the EC50 is greater than 30 µM. Same read-out and setting: then `Cc1ccc(-n2c(Br)nnc2SCC(=O)O)c2ccccc12`, with 1 to 30 µM. Consider `COc1ccc(-n2c(SCC(=O)O)nnc2C(F)(F)F)c2c1CCCC2`, for which the EC50 on hURAT1 Transporter lay within 1 to 30 µM. Still for that read-out and setting: then `CCOC(=O)C(C)(C)Sc1nnc(N)n1-c1ccc(C2CC2)c2ccccc12` [ethyl 2-(5-amino-4-(4-cyclopropylnaphthalen-1-yl)-4H-1,2,4-triazol-3-ylthio)-2-methylpropanoate], with greater than 30 µM; and `O=C(O)CSc1nnc(C(F)F)n1-c1ccc(C2CC2)c2ccccc12`, with 1 to 30 µM. Same read-out and setting: in the case of `CCOC(=O)C(C)(C)Sc1nnc(Br)n1-c1ccc(C2CC2)c2ccccc12` [ethyl 2-(5-bromo-4-(4-cyclopropylnaphthalen-1-yl)-4H-1,2,4-triazol-3-ylthio)-2-methylpropanoate] it was 0.001 to 1 µM; in that of `Cc1ccc(-n2c(SCC(=O)O)nnc2C(F)(F)F)c2c1CCCC2`, 0.001 to 1 µM; in that of `CCOC(=O)CSc1nnc(C(F)F)n1-c1ccc(C)c2c1CCCN2`, greater than 30 µM.

`COc1ccc(Cl)c(-n2c(Br)nnc2SCC(=O)O)c1` yielded an EC50 on hURAT1 Transporter greater than 30 µM.

At hURAT1 Transporter, `CCOC(=O)C(C)(C)Sc1nnc(Br)n1-c1ccc(CC)c2ccccc12` registered an EC50 of 0.001 to 1 µM.

As for `CCOC(=O)CSc1nnc(C(F)F)n1-c1c(C)cc(C)c2ccccc12`, the EC50 at hURAT1 Transporter is greater than 30 µM. The same measure, in the same setting: then `CC(C)(C)c1ccc(-n2c(Br)nnc2SCC(=O)O)c(Cl)c1`, with greater than 30 µM. `CC(C)(Sc1nnc(Br)n1-c1ccc(C2CC2)c2ccccc12)C(=O)O` [Example 3, 2-(5-Bromo-4-(4-cyclopropylnaphthalen-1-yl)-4H-1,2,4-triazol-3-ylthio)-2-methylpropanoic acid]: the EC50 at hURAT1 Transporter was in the range of 0.001 to 1 µM. Moreover, in data set [2], the “Liver Microsome Stability % Remaining Human” value came to 97 ± 2%. Moreover, in data set [3], the “Liver Microsome Stability % Remaining Rat” value worked out at 98 ± 0.1%. On hURAT1 Transporter, `COc1ccccc1-n1c(C)nnc1SCC(=O)O` yielded an EC50 greater than 30 µM. On the same count and under the same terms, in the case of `CCOC(=O)CSc1nnc(Br)n1-c1ccc(C2CC2)c2ccccc12` it was 0.001 to 1 µM; in that of `Cc1ccc(-n2c(C)nnc2SCC(=O)O)cc1C`, greater than 30 µM. As for `O=C(O)CSc1nnc(Br)n1-c1ccc(C2CC2)c2ccccc12` [Piperazine salt, 2-(5-bromo-4-(4-cyclopropylnaphthalen-1-yl)-4H-1,2,4-triazol-3-ylthio)acetate], the “Solubility” value in “physchem” (Acetone) is 260 µg/mL; in the data set “physchem” (DMSO) it was roughly 54000 µg/mL; in the data set “physchem” (EtOAc), 55 µg/mL; in the data set “physchem” (Ethanol), 9100 µg/mL; in the data set “physchem” (IPA) it was 1600 µg/mL; in the data set “physchem” (PEG-400), 2400 µg/mL.
